Measurements published in patent US20210251237A1, “PLATFORM FOR DEVELOPING SOIL-BORNE PLANT PATHOGEN INHIBITING MICROBIAL CONSORTIA” (priority 2018, published 2021).
“Also recorded” adds a separate entry of the source. Like-named read-outs stand apart in the source and are kept apart here.

Assays:
[1] = tested on: clinical antimicrobials (antibiotic discs); assay: Antibiotic disc resistance/susceptibility assay of microbial isolates; format: cell-based
Sclerotinia sclerotiorum = assay: Pathogen suppressive activity plate assay (zone of inhibition); format: cell-based; conditions: for mean inhibitory zone size: Table 4
Fusarium oxysporum = assay: as above; format: cell-based; conditions: for zone of inhibition: Table 1; for mean inhibitory zone size: Table 4
soybean = assay: Plant growth promotion, greenhouse (FIG. 27); format: in vivo
Procedure: (§1) Wheat, alfalfa, corn, and soybean plants were evaluated for the growth response to microbial inoculants in growth chamber and greenhouse conditions. For each crop, containers (6.5 cm diameter x 25 cm long) were filled with steamed (sterile) greenhouse soil mix (500 ml) and planted with two (corn, soy, wheat) or three (alfalfa) seeds. Crop varieties were: SOY: AG 0832; CORN: Viking, WHEAT: Prosper, ALFALFA: Saranac. Seeds were inoculated with microbial isolates from the enriched microbial library immediately after planting (2 ml of water agar containing the inoculant per seed, 1×10^11 cells inoculant/ml). Control plants were allowed to grow without the microbial inoculants Plants were grown in the greenhouse and harvested at 3 weeks (corn), 4 weeks (wheat), 4.5 weeks (soybean) and 5 weeks (alfalfa). At harvest, the roots were carefully washed, and above- and belowground fresh weights were recorded (g). Plants were subsequently placed in paper bags and maintained in the 95° F. drying oven for 3 days, after which dry weights were also recorded. Plant weights were compared between inoculated and non-inoculated treatments.
(§2) For each crop (wheat, alfalfa, soybean, corn), a container (6.5 cm dia×25 cm long; approximately 500 cc of soil) was filled with steamed (sterile) greenhouse soil mix and planted with two of each seed (corn, soy, wheat) or three seeds (alfalfa) at a 0.5 inch depth. Crop varieties were: SOY: AG 0832; CORN: Viking, WHEAT: Prosper, ALFALFA: Saranac. Wheat, soybean and corn seeds (but not alfalfa) were surface sterilized before planting. Seeds were not treated with any fungicides or other chemicals. All crops were thinned to one seed per container following emergence. Ten replicate containers were planted for each inoculant and for the non-inoculated control.
(§3) Streptomyces cultures GS1 and PS1 were grown for 7-10 days on plates containing oatmeal agar (OA), and collected in 20% glycerol stocks. Stocks were serially diluted and plated on water agar (WA) for quantification. Stocks were then diluted to approximately 1×10^11 colony-forming units per ml.
(§4) For each inoculant, 2 ml of stock was distributed over the seeds at planting. Seeds and containers were watered when needed. Plants were incubated in the greenhouse and harvested at 3 weeks (corn), 4 weeks (wheat), 4.5 weeks (soybean) and 5 weeks (alfalfa). No additional nitrogen was added. At harvest for each crop, the roots were carefully washed, and above- and belowground fresh weights were recorded (g). Plants were subsequently placed in paper bags and maintained in the 95° F. drying oven for 3 days, after which dry weights were also recorded. Plant weights were compared between inoculated and non-inoculated treatments.

corn = assay: Plant growth promotion, greenhouse (FIG. 27); format: in vivo
Procedure: as §1, §2, §3, §4

[2] = tested on: Wheat, alfalfa, corn, and soybean plants; assay: Plant growth promotion, greenhouse (FIG. 27); format: in vivo; conditions: plant biomass
Procedure: as §1, §2, §3, §4

wheat = assay: Plant growth promotion, greenhouse (FIG. 27); format: in vivo
Procedure: as §1, §2, §3, §4

alfalfa = assay: Plant growth promotion, greenhouse (FIG. 27); format: in vivo
Procedure: as §1, §2, §3, §4

Phytophthora medicaginis [3] = assay: Phytophthora medicaginis control on alfalfa, greenhouse; format: in vivo; conditions: field soil naturally infested, 28 days, inoculated vs non-inoculated
Source text: FIG. 7A-B. Inoculant included in this figure: GS1. FIG. 7A depicts the severity of disease on […]. The present figure was constructed utilizing methods from Example 9(F)(iii). […] Briefly, soils were inoculated with a liquid spore suspension of a single Streptomyces isolate at planting. Alfalfa seeds were planted into field soil that was naturally-infested with the pathogen Phytophthora medicaginis. After 28 days, plants were harvested for disease and biomass assessments.
Inoculum was prepared as described above, and used to inoculate seeds planted in field soil placed in sterile tins. Inoculation occurred immediately after planting. […] GS1 was thus shown to promote plant growth.

Rhizoctonia solani = assay: Pathogen suppressive activity plate assay (zone of inhibition); format: cell-based; conditions: for mean inhibitory zone size: Table 4
Phytophthora sojae [4] = assay: Phytophthora sojae control on soybean, growth chamber; format: in vivo; conditions: growth chamber trials
Phytophthora medicaginis [5] = assay: Pathogen suppressive activity plate assay (zone of inhibition); format: cell-based; conditions: for zone of inhibition: Table 1; for mean inhibitory zone size: Table 4
Fusarium virguliforme = assay: as above; format: cell-based; conditions: Table 4
Phytophthora sojae [6] = assay: as above; format: cell-based
potato scab = assay: Potato field trials: percent scab control; format: in vivo; set-up: concentration or dose not given beside the values
F. culmorum = assay: Pathogen suppressive activity plate assay (zone of inhibition); format: cell-based; conditions: Table 1; pathogen isolate P61
Fusarium graminearum = format: cell-based; conditions: for zone of inhibition: Table 1; for mean inhibitory zone size: Table 4
[7] = tested on: Pythium ultimum var. sporangiferum; assay: Pathogen suppressive activity plate assay (zone of inhibition); format: cell-based

## Streptomyces lydicus [GS1]
[1]; Amoxicillin Clavulanate
  Antibiotic resistance characteristics: R (R-resistant (0 inhibition zone))
[1]; Chloramphenicol
  Antibiotic resistance characteristics: R (R-resistant (0 inhibition zone))
[1]; Erythromycin
  Antibiotic resistance characteristics: S (S-susceptible (>10 mm))
[1]; Kanamycin
  Antibiotic resistance characteristics: S (S-susceptible (>10 mm))
[1]; Novobiocin 5
  Antibiotic resistance characteristics: MS (MS-moderately susceptible (6-10 mm))
[1]; Novobiocin 30
  Antibiotic resistance characteristics: MS (MS-moderately susceptible (6-10 mm))
[1]; Penicillin
  Antibiotic resistance characteristics: R (R-resistant (0 inhibition zone))
[1]; Rifampin
  Antibiotic resistance characteristics: R (R-resistant (0 inhibition zone))
[1]; Streptomycin
  Antibiotic resistance characteristics: S (S-susceptible (>10 mm))
[1]; Tetracycline
  Antibiotic resistance characteristics: R (R-resistant (0 inhibition zone))
[1]; Vancomycin 5
  Antibiotic resistance characteristics: MS (MS-moderately susceptible (6-10 mm))
[1]; Vancomycin 30
  Antibiotic resistance characteristics: MS (MS-moderately susceptible (6-10 mm))
Sclerotinia sclerotiorum; Table 1, pathogen isolate P19
  zone of inhibition: 8.63 mm
Sclerotinia sclerotiorum; pathogen target isolate P17
  mean inhibitory zone size: 16.8 mm
Sclerotinia sclerotiorum; pathogen target isolate P18
  mean inhibitory zone size: 12.8 mm
Sclerotinia sclerotiorum; pathogen target isolate P19
  mean inhibitory zone size: 8.63 mm
Fusarium oxysporum; pathogen isolate P27
  zone of inhibition: 0 mm
Fusarium oxysporum; pathogen isolate P29
  zone of inhibition: 0 mm
Fusarium oxysporum; pathogen target isolate P25
  mean inhibitory zone size: 2.15 mm
Fusarium oxysporum; pathogen target isolate P26
  mean inhibitory zone size: 9.38 mm
Fusarium oxysporum; pathogen target isolate P28
  mean inhibitory zone size: 0 mm
Fusarium oxysporum; pathogen target isolate P29
  mean inhibitory zone size: 0 mm
soybean
  dry weight: significant increases
corn
  fresh and dry weights: not
[2]
  promotion of growth of inoculated vs non-inoculated plants: statistically significant effect
wheat
  fresh and dry weights: not
alfalfa
  fresh and dry weights: significant enhancements
alfalfa; FIG. 27
  growth promotion: promote the growth
Phytophthora medicaginis [3]
  disease: significantly reduced; also recorded: reduced disease
  plant biomass: significantly increased; also recorded: significant increases
Rhizoctonia solani; P6 isolate of Rhizoctonia solani
  inhibition of pathogen (in words): inhibits
Rhizoctonia solani; Table 1, pathogen isolate P6
  zone of inhibition: 9.15 mm
Rhizoctonia solani; pathogen target isolate P5
  mean inhibitory zone size: 8.95 mm
Rhizoctonia solani; pathogen target isolate P6
  mean inhibitory zone size: 9.15 mm
Rhizoctonia solani; pathogen target isolate P12
  mean inhibitory zone size: 9.78 mm
Phytophthora sojae [4]; soil infested with P. sojae
  reduction of disease severity: 93%
Phytophthora sojae [4]; FIG. 7A
  percent healthy plants: increased
Phytophthora medicaginis [5]; pathogen isolate P43
  zone of inhibition: 4.53 mm
Phytophthora medicaginis [5]; pathogen isolate P44
  zone of inhibition: 10.45 mm
Phytophthora medicaginis [5]; pathogen target isolate P43
  mean inhibitory zone size: 4.53 mm
Phytophthora medicaginis [5]; pathogen target isolate P44
  mean inhibitory zone size: 10.45 mm
Fusarium virguliforme; pathogen target isolate P20
  mean inhibitory zone size: 0 mm
Fusarium virguliforme; pathogen target isolate P21
  mean inhibitory zone size: 1.3 mm
Fusarium virguliforme; pathogen target isolate P22
  mean inhibitory zone size: 0 mm
Fusarium virguliforme; pathogen target isolate P23
  mean inhibitory zone size: 0 mm
Phytophthora sojae [6]; P52 isolate of Phytophthora sojae
  inhibition of pathogen (in words): does not
Phytophthora sojae [6]; Table 1, pathogen isolate P52
  zone of inhibition: 0 mm
Phytophthora sojae [6]; Table 4, pathogen target isolate P52
  mean inhibitory zone size: 0 mm
Potato scab; experiment BPP, disease on non-inoculated tubers 22.2
  Percent Control (reduction in scab severity vs non-inoculated plots): 33%
Potato scab; experiment BSCR, disease on non-inoculated tubers 16.2
  Percent Control (reduction in scab severity vs non-inoculated plots): 35%
Potato scab; experiment BSP, disease on non-inoculated tubers 24.3
  Percent Control (reduction in scab severity vs non-inoculated plots): 42%
Potato scab; experiment BWP, disease on non-inoculated tubers 26.7
  Percent Control (reduction in scab severity vs non-inoculated plots): 38%
Potato scab; experiment RPP, disease on non-inoculated tubers 15.6
  Percent Control (reduction in scab severity vs non-inoculated plots): 37%
Potato scab; experiment RSP, disease on non-inoculated tubers 8.8
  Percent Control (reduction in scab severity vs non-inoculated plots): 39%
F. culmorum
  zone of inhibition: 4.68 mm
Fusarium graminearum; pathogen isolate P31
  zone of inhibition: 8.63 mm
Fusarium graminearum; pathogen isolate P34
  zone of inhibition: 16.28 mm
Fusarium graminearum; pathogen target isolate P30
  mean inhibitory zone size: 14.58 mm
Fusarium graminearum; pathogen target isolate P31
  mean inhibitory zone size: 8.63 mm
Fusarium graminearum; pathogen target isolate P32
  mean inhibitory zone size: 11.5 mm
Fusarium graminearum; pathogen target isolate P33
  mean inhibitory zone size: 13.13 mm
Fusarium graminearum; pathogen target isolate P34
  mean inhibitory zone size: 16.28 mm
Fusarium graminearum; pathogen target isolate P35
  mean inhibitory zone size: 11.03 mm
[7]; Table 1, pathogen isolate P58
  zone of inhibition: 9.95 mm
[7]; Table 4, pathogen target isolate P58
  mean inhibitory zone size: 9.95 mm
